Target: T1, AlaRS E337K binding to GST-Nrp1 b1 (Homo sapiens, UniProt P49588, E337K)
T1 construct: made in house; host or cells: E. coli BL21 (DE3), pET-21a for AlaRS
T1 sequence (P49588 1-968 E337K): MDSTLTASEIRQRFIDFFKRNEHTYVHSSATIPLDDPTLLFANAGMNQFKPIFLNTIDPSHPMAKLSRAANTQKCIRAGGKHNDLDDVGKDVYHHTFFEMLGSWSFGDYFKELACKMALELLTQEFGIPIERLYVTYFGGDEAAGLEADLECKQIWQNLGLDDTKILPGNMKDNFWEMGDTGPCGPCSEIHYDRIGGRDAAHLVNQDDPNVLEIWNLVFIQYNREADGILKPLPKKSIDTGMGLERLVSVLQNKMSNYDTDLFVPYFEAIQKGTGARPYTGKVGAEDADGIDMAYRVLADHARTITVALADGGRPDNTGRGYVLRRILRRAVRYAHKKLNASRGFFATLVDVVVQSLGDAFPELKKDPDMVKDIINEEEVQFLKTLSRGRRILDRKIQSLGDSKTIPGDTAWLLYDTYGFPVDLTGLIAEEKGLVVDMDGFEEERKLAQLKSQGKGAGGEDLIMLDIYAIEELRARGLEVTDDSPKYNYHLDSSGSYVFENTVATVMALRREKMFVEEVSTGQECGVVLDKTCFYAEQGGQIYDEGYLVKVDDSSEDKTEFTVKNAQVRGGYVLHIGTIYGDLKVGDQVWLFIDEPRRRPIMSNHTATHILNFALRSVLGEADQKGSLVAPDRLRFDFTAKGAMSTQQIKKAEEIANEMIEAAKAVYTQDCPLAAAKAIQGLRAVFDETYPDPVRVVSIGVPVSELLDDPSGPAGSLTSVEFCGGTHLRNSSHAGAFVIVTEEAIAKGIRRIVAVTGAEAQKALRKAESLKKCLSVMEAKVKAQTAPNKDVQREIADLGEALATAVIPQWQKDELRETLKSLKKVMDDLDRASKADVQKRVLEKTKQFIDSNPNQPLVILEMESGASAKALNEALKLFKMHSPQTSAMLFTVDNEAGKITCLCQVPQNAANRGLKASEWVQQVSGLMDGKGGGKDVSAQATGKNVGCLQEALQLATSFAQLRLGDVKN
Test: GST pull down assay
Details: 20 µM Tanshinone I, ImageJ, average of three repeats

SMILES: Cc1coc2c1C(=O)C(=O)c1c-2ccc2c(C)cccc12 [Tanshinone I]
- Mean density band (E337K), relative quantification of AlaRS mutant pulled down: 0.90
